We go through three molecules from patent US5753516A, “Screening method for ligands of the EBI-1 receptor” (priority 1995, dated 1998).

Data set [1] deals with T1, EBI1 (Homo sapiens, UniProt P32248).
T1 sequence (P32248 25-378): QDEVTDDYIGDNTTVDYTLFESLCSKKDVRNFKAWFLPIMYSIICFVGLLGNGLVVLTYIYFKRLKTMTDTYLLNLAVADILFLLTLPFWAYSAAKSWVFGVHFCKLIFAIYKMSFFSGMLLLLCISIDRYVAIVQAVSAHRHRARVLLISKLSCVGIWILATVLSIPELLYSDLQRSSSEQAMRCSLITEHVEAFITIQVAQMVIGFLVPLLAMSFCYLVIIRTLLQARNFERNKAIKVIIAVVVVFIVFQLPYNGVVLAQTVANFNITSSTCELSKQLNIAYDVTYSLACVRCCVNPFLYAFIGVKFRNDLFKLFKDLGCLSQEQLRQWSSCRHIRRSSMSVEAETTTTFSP
Briefly: biochemical.
Source text: (§1) Data are plotted as the concentration of free ^3 H-DPDPE (x-axis) vs specific binding of ^3 H-DPDPE (y-axis).

For data set [2], the system named is NALM 6 cells. It counts as binding, human.
For the next data set, the system named is opiate μ-receptor. The note with it: sub-antinociceptive doses; cited from earlier work.
In data set [3] the target is T1, EBI1.
Source text: as §1
Data set [4] has as its system NALM 6 cells. Kind of data set: Light scatter analysis of morphological response of NALM 6 cells. The format is cell-based, human. The method, then: FIG. 2, Panels A and B. Methionine-enkephalin induces a morphological change in NALM 6 cells. […] Analysis of forward and right angle light scatter was performed using a Becton Dickinson FACS SCAN flow cytometer as described (Sklar et al., 1984). Histograms of light scatter were obtained by analyzing 10,000 cells per sample. Data are expressed as mean channel number (y-axis) vs concentration of MET-ENK (x-axis).
Forward and right angle light scatter analysis of the morphological response to MET-ENK: The effect of MET-ENK on cell morphology were measured using flow cytometric analysis of forward and right angle light scatter as previously described (Sklar et al., 1984). For these studies 10^6 cells were resuspended in one-ml of PBS, activated by the addition of MET-ENK or maintained in the PBS buffer alone, and then, incubated for 5 minutes at 37° C. […] Samples were analyzed on a Becton Dickinson FACS SCAN flow cytometer with excitation at 488 nm (Sklar et al., 1984). Histograms of light scattering were obtained by analyzing 10,000 cells for each sample. Data analysis was performed using the Lysys System software package.

The next data set is described as follows: in vitro. As to conditions: human, nalm 6 cells.
Data set [5] has as its system NALM 6 cells. Kind of data set: MET-ENK-FITC binding to NALM 6 cells (flow cytometry, Scatchard). Further details: species or system human. As to conditions: 5 μM naloxone.
The test system of data set [6] is NALM 6 cells. Briefly: [Ca^2+ ]i response of NALM 6 / leukemia cells (Indo-1, flow cytometry). It counts as cell-based, human. The method, then: FIG. 15, Panels A-C. […] Cells were labeled with Indo-1 as previously described (Rabinovitch et al., 1986), washed twice in serum-free medium and held at 4° C. until flow cytometric analysis. The violet/blue fluorescence ratio was measured using previously described methods (Rabinovitch et al., 1986). Nonstimulated cells (measured in medium, alone) were used to establish a relative violet/blue ratio arbitrarily set at 1.0 as previously described (Rabinovitch). Calibration of [Ca^2+ ]i was carried out as previously described by Rabinovitch et al (1986) using the formula: [formula]
Rmax values were determined by measuring the maximum shift in indo violet/blue fluorescence for cells treated with 4 μM ionomycin. Rmin was measured as the minimum ratio for the violet blue fluorescence of ionomycin treated cells following the addition of 8 mM EGTA. […] The Kd (effective dissociation constant) was set at 250 nM.

The next data set deals with COS (Vector Control). Briefly: cAMP accumulation in COS cells (vector control). The format is cell-based, monkey. The note with it: COS (Vector Control); MET-ENK 0.01 nM, naloxone 10 μM, forskolin 0.1 μM; controls 40.2 and 38.8.
Data set [7] relates to human T cells. Briefly: Migration of human peripheral blood T cells. The format is cell-based.
The next data set concerns LAZ 221 cells. Briefly: Flow cytometry of surface molecule expression on LAZ 221 cells. The format is cell-based, human. The note with it: LAZ 221, 100 fold excess of naloxone. As for the experimental part:
FIG. 4, Panels A-C. […] Data are presented as mean fluorescence intensities measured for 10,000 cells labeled with anti-CD9 or CD10 mAb. In Panel A, the NALM 6 Cells were incubated with MET-ENK (10^-7 M) for the times indicated. In Panel B, the LAZ 221 cells were incubated with MET-ENK at the doses indicated for 5 minutes at 37° C. […] The anti-CD9 and anti-CD10 mAb used for these experiments were of the IgG2a isotype.
Immunofluorescence Staining and Flow Cytometric Analysis of Cell Surface Molecules: Cells were resuspended at 1×10^6 /ml in PBS and then incubated for periods of 5 to 120 minutes at 37° C. with MET-ENK at doses of 0 to 10^-5 M. Incubations were terminated by transferring samples to an ice bath and then pelleting the cells by centrifugation at 1800 rpm for 5 minutes at 4° C.
Immunofluorescence staining was carried out in 4-ml tubes maintained in an ice water bath. […] Cells were subsequently fixed within a 2% solution of formalin and maintained in the dark at 10° C. until analyzed.
Flow cytometric analysis was performed using a FACS SCAN Flow Cytometer (Becton Dickinson, Mountain View, Calif.) equipped with a HP9000 Series computer and the Lysys System software analysis package. Data were collected as histograms depicting the fluorescence intensity for 5,000 to 10,000 cells per sample.
The non-binding IgG1 MOPC myeloma protein, anti-macrophage/monocyte specific CD14 (MO2; IgG2) and anti-T cell specific CD3 (OKT3; IgG2a) mAb were employed as nonreactive controls for measuring the autofluorescence of B cells.

Data set [8] has as its system NALM 6 cells. Briefly: Migration (chemotaxis) of NALM 6 pre-B ALL cells. The format is cell-based, human. As to conditions: for % Response (with/without naloxone): 90 min, 10 µM.
For data set [9], the target named is T1, EBI1. The note with it: COS (EBI 1); MET-ENK 0.01 nM, naloxone 10 μM, forskolin 0.1 μM; controls 61.2 and 63.5.
The test system of data set [10] is lymphocytes and macrophages. The note with it: injection into cerebroventricles of rodents; cited from earlier work.
The test system of data set [11] is freshly isolated lymphocytes and EBV transformed cell lines. The note with it: Borboni et al., 1989; cited from earlier work.
Data set [12] relates to human T cells. As to conditions: Heagy et al., 1990; cited from earlier work.
Another data set concerns PMN. As to conditions: Falke and Fischer, 1985; cited from earlier work.
A further data set relates to PBMC. As to conditions: cited from earlier work.

“Also recorded” adds a separate entry of the source.

`CC1(C)SSC(C)(C)[C@@H](NC(=O)[C@@H](N)Cc2ccc(O)cc2)C(=O)NCC(=O)N[C@@H](Cc2ccccc2)C(=O)N[C@H]1C(=O)O` [DPDPE, [D-Pen^2,5]enkephalin] showed a Kd at EBI1 [1] of 0.2 nM. In addition, the “specific binding, % of total” value in the data set on Jurkat cells is 50-60%; in the data set with NALM 6 cells [2], 50-80%. Further, the “effect on morphine antinociception” value in the data set on opiate μ-receptor is listed as “enhance the antinociception mediated via the opiate μ-receptor agonist morphine”. The “binding to membranes of COS cells expressing lymphocyte R7G” value at EBI1 [3] is “specific, high affinity binding”.

Regarding `C=CCN1CC[C@]23c4c5ccc(O)c4O[C@H]2C(=O)CC[C@@]3(O)[C@H]1C5` [Naloxone], the “morphological response (light scatter) of NALM 6 cells” value with NALM 6 cells [4] (5 minutes at 37° C.) is “inhibited by preincubation with naloxone”. Further, the “baseline light scatter, naloxone alone” value in the data set with NALM 6 cells [4] (vs PBS alone) was “shifted the baseline measurement below that for the control”. The “reversal of agonist binding by naloxone” value in the data set with Jurkat cells (^3 H-DADLE, ^3 H-DPDPE, ^3 H-U69,593) is “a portion of the binding of these highly selective opiate receptor agonists was reversed by naloxone”. In addition, the viability at 10 µM in “in vitro” was at least 96%. The “effect of naloxone on MET-ENK(-FITC) binding” value in the data set with NALM 6 cells [5] was “in the presence of naloxone this association is decreased; also recorded: blocked”. Moreover, the “[Ca^2+ ]i response” value with NALM 6 cells [6] was “inhibited by naloxone”. For the same molecule, the figures for the cAMP in the data set on COS (Vector Control) and on EBI1 [9] were 31.4 fmoles/cell × 10^3 and 76.4 fmoles/cell × 10^3, respectively. Moreover, the “human lymphocyte / T cell migration” value in the data set on human T cells [7] is “blocked the T cell chemotaxis to MET-ENK”. The “effect on MET-ENK induction of CD9” value in the data set on LAZ 221 cells was “totally blocked”. The “% Response (with/without naloxone)” value was 43% in the data set on NALM 6 cells [8] (MET-ENK 1 nM, naloxone 10^-5 M); 42% in the data set with NALM 6 cells [8] (MET-ENK 100 nM, naloxone 10^-5 M); 82% with NALM 6 cells [8] (spontaneous locomotion, naloxone 10^-5 M). Further, in the data set with NALM 6 cells [8] (migration to MET-ENK or spontaneous locomotion), the “effect of naloxone on NALM 6 migration” value is “inhibited the migration of NALM 6 cells to MET-ENK; also recorded: Spontaneous locomotion resulting from the random movement of unchallenged cells was equivalent for naloxone treated and nontreated cells”. Further, in the data set on NALM 6 cells [8] (naloxone 10^-5 M, MET-ENK 100 nM), the “cell counts, migration to MET-ENK with naloxone” value was found to be 1476 cell counts. The “cell counts, spontaneous locomotion with naloxone” value with NALM 6 cells [8] (naloxone 10^-5 M, no MET-ENK, without naloxone 1647) stood at 1350 cell counts.

Turning to β-END: polypeptide β-endorphin, the “lymphocyte and macrophage migration into ventricles” value in data set [10] is “elicited lymphocyte and macrophage migration into the ventricles”. Moreover, the “sensitivity of binding to naloxone” value in [11] is “insensitive to naloxone and not displaced by synthetic peptides containing MET-ENK residues”. For the same molecule, in the data set on human T cells [7], the “human lymphocyte / T cell migration” value is “stimulate human lymphocyte migration”. Further, in the data set with human T cells [12], the “human T cell migration” value is on record as “potent stimulants for the migration of isolated human T cells”. In addition, the “onset of PMN morphological response” value with PMN is given as at most 2 minutes. Also, the “blastogenic responses to T and B cell lectins” value with PBMC (PBMC) is “augment the blastogenic responses of PBMC to both T and B cell lectins”. For the same molecule, the IFN-γ production entry with PBMC (lectin stimulated PBMC) is listed as “enhance IFN-γ production”.
